Results as given in article PMC13070491, “Single-nucleus transcriptomics, pharmacokinetics, and pharmacodynamics of CDK4/6 and mTOR inhibition in a Phase 0/1 trial of recurrent high-grade glioma” (Neuro-Oncology, 2025).

System: GB126, GB239 and GB86 patient-derived cell lines
Assay: In vitro single-cell RNA sequencing, analyses across the cell lines (pseudobulk differential gene expression, GSEA, non-cycling cells)
Assay type: cell-based, human
Procedure: Patient-derived glioma stem cell lines (GSCs; GB126, GB86, and GB239) were established from resected GBM tumor tissue. Cell lines were genetically profiled for mutations and copy number aberrations using the IvySeq custom gene panel. […] GB239 was derived from a tumor sample included in this Phase 0 trial (tumor sample: 100-0039). All human GSCs were cultured as described previously.[12]
Following the fifth day of drug exposure, cells were harvested, cryopreserved to be processed at a later point, or immediately processed for single-cell RNA sequencing (10x Genomics, 3’ version 3). The single-cell RNA sequencing data were then processed via cellranger count and Seurat. Briefly, cells were filtered out based on the following criteria: minimum number of genes detected >500 and <10 000 with a maximum percentage of mitochondrial genes set to 10%. Statistical assessment was made between the malignant proportions of each cell state using a 2-sided paired t-test.
Descriptive statistics of the clinical data are included in Table 1. Comparisons between groups were conducted using a 2-sided or paired 2-sided t-test, where indicated. P < .05 was considered significant. Multiple hypothesis test corrections (ie, false discovery rate correction) were applied for snRNAseq pseudobulk differential expression analysis.

In the case of `CN(C)C(=O)c1cc2cnc(Nc3ccc(N4CCNCC4)cn3)nc2n1C1CCCC1` [Ribociclib, ribociclib], the “CDK4 gene expression following ribociclib treatment” value (5 days vs DMSO, single-cell RNAseq) is reported as “reduced but remained high”, the “NPC-like proportion, cells not actively cycling” value (ribociclib vs DMSO 5 days, paired t-test P = 1.4E-06) is reported as “decrease” and the “AC-like proportion, cells not actively cycling” value (ribociclib vs DMSO 5 days, paired t-test P = 2.6E-03) is reported as “increase”.
